The source of these data is ChEMBL document CHEMBL3044879, “Design, synthesis, and preliminary in vitro and in vivo pharmacological evaluation of 4-{4-[2-(4-(2-substitutedquinoxalin-3-yl)piperazin-1-yl)ethyl]phenyl}thiazoles as atypical antipsychotic agents” (Med Chem Res, 2013).

Active and inactive are the calls of the source. The calls are words filed in the database; no cut-off is given here.

In data set [1] the test system is Mus musculus. The data set is described as follows: Antagonist activity at mesolimbic dopaminergic D2 receptor in Swiss albino Mus musculus (mouse) assessed as inhibition of apomorphine-induced cage climbing behavior at 0.6 mg/kg, ip administered 1 hr prior to apomorphine challenge measured after 20 min relative to vehicle-treated control. Format: functional. Conditions: route intraperitoneal.

In data set [2] the test system is Mus musculus. The data set is described as follows: In vivo inhibition of dopaminergic D2 receptor in Swiss albino Mus musculus (mouse) at 10 mg/kg, ip relative to vehicle-treated control. Type of data set: functional. Particulars: route intraperitoneal.
Data set [3] deals with Mus musculus. Kind of data set: Antagonist activity at mesolimbic dopaminergic D2 receptor in Swiss albino Mus musculus (mouse) assessed as inhibition of apomorphine-induced cage climbing behavior at 0.6 mg/kg, ip administered 1 hr prior to apomorphine challenge measured after 10 min relative to vehicle-treated control. Particulars: route intraperitoneal. Type of data set: functional.

For data set [4], the system named is Mus musculus. The data set is described as follows: Selectivity ratio of inhibition of 5-HT2A receptor in Swiss albino Mus musculus (mouse) to inhibition of dopaminergic D2 receptor in Swiss albino Mus musculus (mouse) at 10 mg/kg, ip. Format: functional. Particulars: route intraperitoneal.
Data set [5] deals with Mus musculus. The data set is described as follows: Antagonist activity at mesolimbic dopaminergic D2 receptor in Swiss albino Mus musculus (mouse) assessed as inhibition of apomorphine-induced cage climbing behavior at 0.6 mg/kg, ip administered 1 hr prior to apomorphine challenge measured after 30 min relative to vehicle-treated control. Type of data set: functional. Particulars: route intraperitoneal.

Data set [6] has as its system Mus musculus. The data set is described as follows: Antagonist activity at central serotonergic 5-HT2A receptor in Swiss albino Mus musculus (mouse) assessed as inhibition of quipazine meleate-induced head twiches at 0.6 mg/kg, ip administered 1 hr prior to quipazine meleate challenge measured after 30 to 40 min relative to vehicle-treated control. Particulars: route intraperitoneal. Type of data set: functional.

Data set [7] has as its system Mus musculus. The data set is described as follows: Antagonist activity at nigrostriatal dopaminergic D2 receptor in Swiss albino Mus musculus (mouse) assessed as maximum average cataleptic time at 0.6 mg/kg, ip after 1 to 5 hr relative to vehicle-treated control. Set-up: dose 0.6 mg/kg, route intraperitoneal. Conditions: in vivo. Format: organism-based.
Data set [8] deals with Mus musculus. Kind of data set: In vivo inhibition of 5-HT2A receptor in Swiss albino Mus musculus (mouse) at 10 mg/kg, ip relative to vehicle-treated control. Type of data set: functional. Conditions: route intraperitoneal.
The target in data set [9] is D(2) dopamine receptor (Rattus norvegicus) (UniProt P61169). The data set is described as follows: Displacement of [3H]spiperone from D2 receptor in Rattus norvegicus (rat) straitum membrane homogenates at 10 uM after 60 min by liquid scintillation counting analysis. On the technique in general: In a radioligand displacement assay an active substance lowers the binding of a labelled ligand.

For data set [10], the system named is Mus musculus. Kind of data set: Antagonist activity at mesolimbic dopaminergic D2 receptor in Swiss albino Mus musculus (mouse) assessed as inhibition of apomorphine-induced cage climbing behavior at 10 mg/kg, ip administered 1 hr prior to apomorphine challenge measured after 20 min relative to vehicle-treated control. Format: functional. Conditions: route intraperitoneal.

Data set [11] deals with Mus musculus. The data set is described as follows: Antagonist activity at mesolimbic dopaminergic D2 receptor in Swiss albino Mus musculus (mouse) assessed as inhibition of apomorphine-induced cage climbing behavior at 10 mg/kg, ip administered 1 hr prior to apomorphine challenge measured after 10 min relative to vehicle-treated control. Format: functional. Conditions: route intraperitoneal.

The target of data set [12] is 5-hydroxytryptamine receptor 2A (Rattus norvegicus) (UniProt P14842). The data set is described as follows: Displacement of [3H]ketanserin from 5-HT2A receptor in Rattus norvegicus (rat) cortex membrane homogenates up to 1 uM after 90 min by liquid scintillation counting analysis.
The target is the same in data set [13]. The data set is described as follows: Displacement of [3H]ketanserin from 5-HT2A receptor in Rattus norvegicus (rat) cortex membrane homogenates at 10 uM after 90 min by liquid scintillation counting analysis.
Data set [14] deals with D(2) dopamine receptor (Rattus norvegicus) (UniProt P61169). Kind of data set: Displacement of [3H]spiperone from D2 receptor in Rattus norvegicus (rat) straitum membrane homogenates at 100 uM after 60 min by liquid scintillation counting analysis.
The subject of data set [15] is Mus musculus. Kind of data set: Antagonist activity at mesolimbic dopaminergic D2 receptor in Swiss albino Mus musculus (mouse) assessed as inhibition of apomorphine-induced cage climbing behavior at 10 mg/kg, ip administered 1 hr prior to apomorphine challenge measured after 30 min relative to vehicle-treated control. Format: functional. Particulars: route intraperitoneal.

For data set [16], the target named is D(2) dopamine receptor (Rattus norvegicus) (UniProt P61169). Kind of data set: Displacement of [3H]spiperone from dopaminergic D2 receptor in Rattus norvegicus (rat) straitum membrane homogenates up to 1 uM after 60 min by liquid scintillation counting analysis.
Data set [17] deals with Mus musculus. The data set is described as follows: Antagonist activity at nigrostriatal dopaminergic D2 receptor in Swiss albino Mus musculus (mouse) assessed as maximum average cataleptic time at 10 mg/kg, ip after 1 to 5 hr relative to vehicle-treated control. Conditions: in vivo. More on the design: dose 10 mg/kg, route intraperitoneal. Type of data set: organism-based.

Data set [18] concerns Mus musculus. The data set is described as follows: Antagonist activity at central serotonergic 5-HT2A receptor in Swiss albino Mus musculus (mouse) assessed as inhibition of quipazine meleate-induced head twiches at 10 mg/kg, ip administered 1 hr prior to quipazine meleate challenge measured after 30 to 40 min relative to vehicle-treated control. Format: functional. Particulars: route intraperitoneal.

5-hydroxytryptamine receptor 2A (Rattus norvegicus), sequence (P14842 whole entry): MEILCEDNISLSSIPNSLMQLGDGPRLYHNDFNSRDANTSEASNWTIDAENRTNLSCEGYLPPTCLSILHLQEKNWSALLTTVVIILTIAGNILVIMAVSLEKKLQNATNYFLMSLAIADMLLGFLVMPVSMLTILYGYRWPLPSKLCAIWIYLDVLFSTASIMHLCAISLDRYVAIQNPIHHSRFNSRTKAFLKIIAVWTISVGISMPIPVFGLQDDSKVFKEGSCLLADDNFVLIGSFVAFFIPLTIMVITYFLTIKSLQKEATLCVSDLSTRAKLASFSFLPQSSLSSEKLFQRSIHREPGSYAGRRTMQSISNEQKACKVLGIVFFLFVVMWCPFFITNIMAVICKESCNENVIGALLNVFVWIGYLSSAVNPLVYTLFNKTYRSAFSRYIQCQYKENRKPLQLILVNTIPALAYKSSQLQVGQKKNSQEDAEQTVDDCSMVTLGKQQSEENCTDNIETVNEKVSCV
D(2) dopamine receptor (Rattus norvegicus), sequence (P61169 whole entry): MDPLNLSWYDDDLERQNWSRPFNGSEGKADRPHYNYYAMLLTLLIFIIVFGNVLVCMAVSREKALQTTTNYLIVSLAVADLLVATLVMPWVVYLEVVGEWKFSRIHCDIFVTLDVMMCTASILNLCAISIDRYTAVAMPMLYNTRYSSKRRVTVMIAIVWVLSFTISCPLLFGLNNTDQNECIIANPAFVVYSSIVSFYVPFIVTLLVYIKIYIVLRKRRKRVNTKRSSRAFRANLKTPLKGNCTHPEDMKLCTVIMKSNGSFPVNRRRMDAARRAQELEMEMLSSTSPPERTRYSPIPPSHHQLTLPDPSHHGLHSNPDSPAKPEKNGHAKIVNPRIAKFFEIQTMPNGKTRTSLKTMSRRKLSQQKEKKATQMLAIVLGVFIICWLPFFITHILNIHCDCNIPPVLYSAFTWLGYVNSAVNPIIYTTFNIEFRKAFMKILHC

As for `Cc1nc2n(c(=O)c1CCN1CCC(c3noc4cc(F)ccc34)CC1)CCCC2` [RISPERIDONE], the inhibition in vivo (in general, the relative decrease from the control value, in per cent) at 0.6 mg/kg was 91% in the data set on Mus musculus [1], 91% with Mus musculus [3], 90% with Mus musculus [5] and 100% with Mus musculus [6]. Moreover, the Imax in the data set with Mus musculus [2] turned out to be 91%. Further, the Selectivity ratio in the data set with Mus musculus [4] turned out to be 1.0989. Also, in the data set on Mus musculus [7], the Time came out at 2.54 s. This molecule also yielded an inhibition in vivo at 10 mg/kg in the data set on Mus musculus [8] of 100%.
Consider `Cc1nc(-c2ccc(CCN3CCN(c4cnc5ccccc5n4)CC3)cc2)cs1`, for which the inhibition entry in data set [9], in data set [12] and in data set [16] was “inactive” in each case. This molecule also registered an Imax in the data set with Mus musculus [2] of 85%. In addition, the inhibition in vivo at 10 mg/kg in the data set with Mus musculus [10] was determined as 55%; in the data set on Mus musculus [11] it was 75%; with Mus musculus [15], 85%; with Mus musculus [18], 77%; with Mus musculus [8] it was 77%. Besides, in the data set with Mus musculus [4], the Selectivity ratio came out at 0.9059. For the same molecule, the inhibition (as a rule, the relative decrease from the control value, in per cent) worked out at 63% in data set [13] and 30% in [14]. Also, the Time in the data set on Mus musculus [17] amounted to 5.17 s.
Take `COc1nc2ccccc2nc1N1CCN(CCc2ccc(-c3csc(N)n3)cc2)CC1`: the inhibition entry in [9], in data set [12] and in [16] was “inactive” in each case. The molecule also displayed an Imax with Mus musculus [2] of 65%. In addition, the inhibition in vivo at 10 mg/kg with Mus musculus [10] was determined as 60%; with Mus musculus [11], 60%; with Mus musculus [15] it was 65%; in the data set on Mus musculus [18], 12%; with Mus musculus [8], 12%. Also, the Selectivity ratio in the data set with Mus musculus [4] is on record as 0.1846. Besides, the results for the inhibition in data set [13] and in data set [14] were 49% and 24%, respectively. For the same molecule, the Time with Mus musculus [17] is 14.12 s.
In the case of `CNc1nc(-c2ccc(CCN3CCN(c4nc5ccccc5nc4OC)CC3)cc2)cs1`, the inhibition result in data set [9], in data set [12] and in data set [16] was “inactive” each time. Besides, the Imax in the data set with Mus musculus [2] is on record as 85%. In addition, the inhibition in vivo at 10 mg/kg in the data set with Mus musculus [10] was determined as 85%; in the data set with Mus musculus [11] it was 60%; with Mus musculus [15], 65%; with Mus musculus [18], 51%; in the data set on Mus musculus [8], 51%. The Selectivity ratio in the data set with Mus musculus [4] was determined as 0.6. For the same molecule, the inhibition in data set [13] stood at 58%; in data set [14], 40%. For the same molecule, the Time with Mus musculus [17] is 10.67 s.
